Patent US10414811B2, “Protease-resistant lipidated GLP-1 analogs” (MEDIMMUNE LIMITED, priority 2015, dated 2019)
Read-outs that look alike come from different tables or passages of the source. Numbered stars: 1 amine (or outer) side, 2 acyl side, 3 side chain; on linkers, the order of the positions; unused ones are H or OH. Square brackets hold non-standard residues; d marks the D form. Side chains are listed from the residue outwards. Peptide text beside a SMILES is read from it. * marks the point of attachment. γGlu = O=C(O)[C@H](CCC(=O)[*:2])N[*:1]; αMeF = C[C@](N)(Cc1ccccc1)C(=O)O; αMeK = C[C@](N)(CCCCN)C(=O)O; Lauroyl = CCCCCCCCCCCC(=O)*; αMeS = C[C@](N)(CO)C(=O)O; AEEA = NCCOCCOCC(=O)O; Aib = CC(C)(N)C(=O)O

What was measured:
[1] = biological target: T1, human glucagon receptor (GCGR) (Homo sapiens, UniProt P47871); assay: cAMP assay, human GCGR cells; assay type: cell-based
T1 construct: expressed in transfected cells
T1 sequence (P47871 26-477): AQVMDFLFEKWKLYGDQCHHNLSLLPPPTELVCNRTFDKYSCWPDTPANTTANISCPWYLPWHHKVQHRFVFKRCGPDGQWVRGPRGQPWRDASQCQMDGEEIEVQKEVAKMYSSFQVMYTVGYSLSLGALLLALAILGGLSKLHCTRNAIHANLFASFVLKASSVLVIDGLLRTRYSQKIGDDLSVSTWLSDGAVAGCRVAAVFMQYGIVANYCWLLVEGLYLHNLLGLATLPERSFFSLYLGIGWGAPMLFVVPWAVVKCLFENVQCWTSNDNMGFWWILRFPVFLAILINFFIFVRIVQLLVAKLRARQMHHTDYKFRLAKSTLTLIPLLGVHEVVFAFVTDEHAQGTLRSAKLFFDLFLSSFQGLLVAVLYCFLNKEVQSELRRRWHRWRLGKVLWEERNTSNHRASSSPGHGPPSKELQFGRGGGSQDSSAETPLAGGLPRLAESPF
Method: (§1) Sample dilutions are made in duplicate.
(§2) A frozen cryo-vial of cells expressing the receptor of interest is thawed rapidly in a water-bath, transferred to pre-warmed assay buffer and spun at 240×g for 5 minutes. Cells are re-suspended in assay buffer at a batch-dependent optimized concentration (e.g. hGCGR cells at 2×10^5 cells/ml, hGLP-1R and hGIPR cells at 1×10^5 cells/ml).
(§3) To this, 5 μL cell suspension is added and the plates incubated at room temperature for 30 minutes.
(§4) cAMP levels are measured using a commercially available cAMP dynamic 2 HTRF kit (Cisbio, Cat #62AM4PEJ), following the two step protocol as per manufacturer's recommendations. In brief; anti-cAMP cryptate (donor fluorophore) and cAMP-d2 (acceptor fluorophore) are made up separately by diluting each 1/20 in conjugate & lysis buffer provided in the kit. 5 μL anti-cAMP cryptate is added to wells of the assay plate, and 5 μL cAMP-d2 is added to wells except non-specific binding (NSB) wells, to which conjugate and lysis buffer are added. […] EC50 values of the synthetic peptides determined in cAMP assays are then determined.
(§5) Data is transformed to % Delta F as described in the manufacturer's guidelines and analyzed by 4-parameter logistic fit to determine EC50 values. […] To compare the balance of activities at the GLP-1R and GCGR between different peptides and across different conditions, these can be correlated, where the EC50's are related to those of comparator peptides.

[2] = biological target: T2, human glucose-dependent insulinotropic peptide receptor (GIPR) (Homo sapiens, UniProt P48546); assay: cAMP assay, human GIPR cells; assay type: cell-based
T2 construct: expressed in transfected cells
T2 sequence (P48546 22-466): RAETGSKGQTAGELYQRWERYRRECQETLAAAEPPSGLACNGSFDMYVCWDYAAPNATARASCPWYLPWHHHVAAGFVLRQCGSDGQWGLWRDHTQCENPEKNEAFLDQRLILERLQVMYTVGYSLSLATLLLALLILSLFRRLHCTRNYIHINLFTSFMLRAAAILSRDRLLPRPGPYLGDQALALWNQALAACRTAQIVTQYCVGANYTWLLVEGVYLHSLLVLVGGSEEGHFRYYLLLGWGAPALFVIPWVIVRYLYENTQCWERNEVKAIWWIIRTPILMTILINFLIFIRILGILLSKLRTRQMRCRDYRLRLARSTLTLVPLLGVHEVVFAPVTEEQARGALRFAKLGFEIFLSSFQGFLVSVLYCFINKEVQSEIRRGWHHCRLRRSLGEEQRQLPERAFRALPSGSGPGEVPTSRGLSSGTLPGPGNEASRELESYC
Method: as §1, §2, §3, §4, §5

[3] = cAMP assay, first determination (n1), read-out: Primary assay EC50 Gluc-R (n1)
[4] = cAMP assay, second determination (n2), read-out: Primary assay EC50 Gluc-R (n2)
[5] = cAMP assay, first determination (n1), read-out: Primary assay EC50 GIP-R (n1)
[6] = cAMP assay, second determination (n2), read-out: Primary assay EC50 GIP-R (n2)
[7] = tris-lipidated peptides, second replicate, read-out: Primary assay EC50 Gluc-R (n2)
[8] = tris-lipidated peptides, first replicate, read-out: Primary assay EC50 GIP-R (n1)

CC[C@H](C)[C@H](NC(=O)[C@](C)(Cc1ccccc1)NC(=O)[C@H](CCC(=O)O)NC(=O)[C@](C)(CCCCN)NC(=O)[C@H](C)NC(=O)[C@H](C)NC(=O)[C@H](CCC(=O)O)NC(=O)CNC(=O)[C@H](CCC(=O)O)NC(=O)[C@@H](NC(=O)[C@](C)(Cc1ccccc1)NC(=O)[C@H](CO)NC(=O)[C@H](CO)NC(=O)[C@@H](NC(=O)[C@H](CC(=O)O)NC(=O)[C@H](CO)NC(=O)[C@@H](NC(=O)[C@](C)(Cc1ccccc1)NC(=O)[C@H](CO)NC(=O)CNC(=O)[C@H](CCC(=O)O)NC(=O)C(C)(C)NC(=O)[C@@H](N)Cc1c[nH]cn1)[C@@H](C)O)C(C)C)C(C)C)C(=O)N[C@@H](C)C(=O)N[C@@](C)(Cc1ccccc1)C(=O)N[C@H](C(=O)N[C@H](C(=O)N[C@@](C)(CCCCN)C(=O)NCC(=O)NCC(N)=O)C(C)C)C(C)C [compound 10] (H-H[Aib]EGS[αMeF]TSDVSS[αMeF]VEGEAA[αMeK]E[αMeF]IA[αMeF]VV[αMeK]GG-NH2; N-terminus assumed)
EC50 [1, 3]: ≥ 100 nM | EC50 [1, 4]: ≥ 100 nM | EC50 [2, 5]: ≥ 100 nM | EC50 [2, 6]: ≥ 100 nM

CC(C)[C@H](NC(=O)[C@H](CCC(=O)O)NC(=O)[C@H](CO)NC(=O)[C@H](CO)NC(=O)[C@](C)(Cc1ccccc1)NC(=O)[C@H](CO)NC(=O)CNC(=O)[C@H](CCC(=O)O)NC(=O)C(C)(C)NC(=O)[C@@H](N)Cc1c[nH]cn1)C(=O)N[C@@H](CO)C(=O)N[C@@H](CO)C(=O)N[C@@](C)(Cc1ccccc1)C(=O)N[C@H](C(=O)N[C@@H](CCC(=O)O)C(=O)NCC(=O)N[C@@H](CCC(=O)O)C(=O)N[C@@H](C)C(=O)N[C@@H](C)C(=O)N[C@@](C)(CCCCN)C(=O)N[C@@H](CCC(=O)O)C(=O)N[C@@](C)(Cc1ccccc1)C(=O)N[C@H](C(=O)N[C@@H](C)C(=O)N[C@@](C)(Cc1ccccc1)C(=O)N[C@H](C(=O)N[C@H](C(=O)N[C@@](C)(CCCCN)C(=O)NCC(=O)NCC(N)=O)C(C)C)C(C)C)C(C)C)C(C)C [compound 12] (H-H[Aib]EGS[αMeF]SSEVSS[αMeF]VEGEAA[αMeK]E[αMeF]VA[αMeF]VV[αMeK]GG-NH2)
EC50 [1, 3]: 10 nM | EC50 [1, 4]: 13 nM | EC50 [2, 5]: 45 nM | EC50 [2, 6]: 45 nM

CCCCCCCCCCCC(=O)N[C@@H](CCC(=O)NCCOCCOCC(=O)NCCOCCOCC(=O)NCCCC[C@H](NC(=O)[C@H](CC(=O)O)NC(=O)[C@H](CO)NC(=O)[C@@H](NC(=O)[C@](C)(Cc1ccccc1)NC(=O)[C@H](CO)NC(=O)CNC(=O)[C@H](CCC(=O)O)NC(=O)C(C)(C)NC(=O)[C@@H](N)Cc1c[nH]cn1)[C@@H](C)O)C(=O)N[C@@H](CO)C(=O)N[C@@H](CO)C(=O)N[C@@H](Cc1ccc(O)cc1)C(=O)N[C@@H](CC(C)C)C(=O)N[C@@H](CCC(=O)O)C(=O)NCC(=O)N[C@@H](CCC(=O)O)C(=O)N[C@@H](C)C(=O)N[C@@H](C)C(=O)N[C@@](C)(CCCCN)C(=O)N[C@@H](CCCCNC(=O)COCCOCCNC(=O)COCCOCCNC(=O)CC[C@H](NC(=O)CCCCCCCCCCC)C(=O)O)C(=O)N[C@@H](Cc1ccccc1)C(=O)N[C@H](C(=O)N[C@@H](C)C(=O)N[C@@H](Cc1ccccc1)C(=O)N[C@@H](CCCCNC(=O)COCCOCCNC(=O)COCCOCCNC(=O)CC[C@H](NC(=O)CCCCCCCCCCC)C(=O)O)C(=O)N[C@H](C(=O)N[C@@H](CCC(=O)O)C(=O)NCC(=O)NCC(N)=O)C(C)C)[C@@H](C)CC)C(=O)O [compound 474] (H-H[Aib]EGS[αMeF]TSDK([AEEA-AEEA-γGlu-Lauroyl])SSYLEGEAA[αMeK]K([AEEA-AEEA-γGlu-Lauroyl])FIAFK([AEEA-AEEA-γGlu-Lauroyl])VEGG-NH2; N-terminus assumed)
EC50 [1, 7]: 19.9 nM | EC50 [2, 8]: 19.9 nM

CCCCCCCCCCCC(=O)N[C@@H](CCC(=O)N[C@@H](CCC(=O)NCCCC[C@H](NC(=O)[C@H](C)NC(=O)[C@H](C)NC(=O)[C@H](CCC(=O)O)NC(=O)CNC(=O)[C@H](CCC(=O)O)NC(=O)[C@H](CC(C)C)NC(=O)[C@](C)(Cc1ccccc1)NC(=O)[C@H](CO)NC(=O)[C@](C)(CO)NC(=O)[C@@H](NC(=O)[C@H](CC(=O)O)NC(=O)[C@H](CO)NC(=O)[C@@H](NC(=O)[C@](C)(Cc1ccccc1)NC(=O)[C@H](CO)NC(=O)CNC(=O)[C@H](CCC(=O)O)NC(=O)C(C)(C)NC(=O)[C@@H](N)Cc1c[nH]cn1)[C@@H](C)O)C(C)C)C(=O)N[C@@H](CCC(=O)O)C(=O)N[C@@](C)(Cc1ccccc1)C(=O)N[C@H](C(=O)N[C@@H](C)C(=O)N[C@@](C)(Cc1ccccc1)C(=O)N[C@H](C(=O)N[C@H](C(=O)N[C@@](C)(CCCCN)C(=O)NCC(=O)NCC(N)=O)C(C)C)C(C)C)[C@@H](C)CC)C(=O)O)C(=O)O [compound 129]
EC50 [1, 3]: ≥ 27 nM | EC50 [1, 4]: ≥ 27 nM | EC50 [2, 5]: ≥ 27 nM | EC50 [2, 6]: ≥ 27 nM

CCCCCCCCCCCC(=O)N[C@@H](CCC(=O)NCCOCCOCC(=O)NCCOCCOCC(=O)NCCCC[C@H](NC(=O)[C@H](CCC(=O)O)NC(=O)CNC(=O)[C@H](CCC(=O)O)NC(=O)[C@H](CC(C)C)NC(=O)[C@H](CCCCNC(=O)COCCOCCNC(=O)COCCOCCNC(=O)CC[C@H](NC(=O)CCCCCCCCCCC)C(=O)O)NC(=O)[C@H](CO)NC(=O)[C@](C)(CO)NC(=O)[C@@H](NC(=O)[C@H](CC(=O)O)NC(=O)[C@H](CO)NC(=O)[C@@H](NC(=O)[C@](C)(Cc1ccccc1)NC(=O)[C@H](CO)NC(=O)CNC(=O)[C@H](CCC(=O)O)NC(=O)C(C)(C)NC(=O)[C@@H](N)Cc1c[nH]cn1)[C@@H](C)O)C(C)C)C(=O)N[C@@H](C)C(=O)N[C@@](C)(CCCCN)C(=O)N[C@@H](CCC(=O)O)C(=O)N[C@@H](Cc1ccccc1)C(=O)N[C@H](C(=O)N[C@@H](C)C(=O)N[C@@H](Cc1ccccc1)C(=O)N[C@@H](CCCCNC(=O)COCCOCCNC(=O)COCCOCCNC(=O)CC[C@H](NC(=O)CCCCCCCCCCC)C(=O)O)C(=O)N[C@H](C(=O)N[C@@H](CCC(=O)O)C(=O)NCC(=O)NCC(N)=O)C(C)C)[C@@H](C)CC)C(=O)O [compound 481] (H-H[Aib]EGS[αMeF]TSDV[αMeS]SK([AEEA-AEEA-γGlu-Lauroyl])LEGEK([AEEA-AEEA-γGlu-Lauroyl])A[αMeK]EFIAFK([AEEA-AEEA-γGlu-Lauroyl])VEGG-NH2; N-terminus assumed)
EC50 [1, 7]: 19.8 nM | EC50 [2, 8]: 19.8 nM

CCCCCCCCCCCC(=O)N[C@@H](CCC(=O)NCCOCCOCC(=O)NCCOCCOCC(=O)NCCCC[C@H](NC(=O)CNC(=O)[C@H](CCC(=O)O)NC(=O)[C@H](CC(C)C)NC(=O)[C@H](Cc1ccc(O)cc1)NC(=O)[C@H](CO)NC(=O)[C@H](CO)NC(=O)[C@H](CCCCNC(=O)COCCOCCNC(=O)COCCOCCNC(=O)CC[C@H](NC(=O)CCCCCCCCCCC)C(=O)O)NC(=O)[C@H](CC(=O)O)NC(=O)[C@H](CO)NC(=O)[C@@H](NC(=O)[C@](C)(Cc1ccccc1)NC(=O)[C@H](CO)NC(=O)CNC(=O)[C@H](CCC(=O)O)NC(=O)C(C)(C)NC(=O)[C@@H](N)Cc1c[nH]cn1)[C@@H](C)O)C(=O)N[C@@H](C)C(=O)N[C@@H](C)C(=O)N[C@@](C)(CCCCN)C(=O)N[C@@H](CCC(=O)O)C(=O)N[C@@H](Cc1ccccc1)C(=O)N[C@H](C(=O)N[C@@H](C)C(=O)N[C@@H](Cc1ccccc1)C(=O)N[C@@H](CCCCNC(=O)COCCOCCNC(=O)COCCOCCNC(=O)CC[C@H](NC(=O)CCCCCCCCCCC)C(=O)O)C(=O)N[C@H](C(=O)N[C@@H](CCC(=O)O)C(=O)NCC(=O)NCC(N)=O)C(C)C)[C@@H](C)CC)C(=O)O [compound 472] (H-H[Aib]EGS[αMeF]TSDK([AEEA-AEEA-γGlu-Lauroyl])SSYLEGK([AEEA-AEEA-γGlu-Lauroyl])AA[αMeK]EFIAFK([AEEA-AEEA-γGlu-Lauroyl])VEGG-NH2; N-terminus assumed)
EC50 ([1]; tris-lipidated peptides, first replicate, read-out: Primary assay EC50 Gluc-R (n1)): 19.9 nM | EC50 [2, 8]: 19.9 nM
